Measurements from PubChem BioAssay (NCI).
Values joined by “and” are separate entries in the source; they are usually repeats but may differ in a detail not shown here. Equal values may be shown once.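 The compound was tested at five concentrations on cells cultured in 96-well plates, with a 48-hour exposure period. Abbreviation: GI50, concentration required for 50% inhibition of growth. TGI: concentration producing complete growth inhibition.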

Tests used:
Test in all cases: inhibition of tumour cell growth, NCI panel, 48 h
MCF7 breast = test system: MCF7 breast
A498 renal = test system: A498 renal
SR leukemia = test system: SR leukemia
TK-10 renal = test system: TK-10 renal
RXF 393 renal = test system: RXF 393 renal
HT29 colon = test system: HT29 colon
OVCAR-8 ovarian = test system: OVCAR-8 ovarian
MDA-MB-435 = test system: MDA-MB-435
K-562 leukemia = test system: K-562 leukemia
DU-145 prostate = test system: DU-145 prostate

SMILES | GI50 (MCF7 breast) | TGI (MCF7 breast) | GI50 (A498 renal) | TGI (A498 renal) | GI50 (SR leukemia) | TGI (SR leukemia) | GI50 (TK-10 renal) | TGI (TK-10 renal) | GI50 (RXF 393 renal) | TGI (RXF 393 renal) | GI50 (HT29 colon) | TGI (HT29 colon) | GI50 (OVCAR-8 ovarian) | TGI (OVCAR-8 ovarian) | GI50 (MDA-MB-435) | TGI (MDA-MB-435) | GI50 (K-562 leukemia) | TGI (K-562 leukemia) | GI50 (DU-145 prostate) | TGI (DU-145 prostate)
NCCCC[C@@H]1NC(=O)[C@H](CC(=O)O)NC(=O)CNC(=O)[C@H](CCCN=C(N)N)NC(=O)[C@@H](N)CSSC[C@@H](C(=O)O)NC(=O)[C@H](CC(=O)O)NC(=O)[C@@H]2CCCN2C(=O)CNC1=O | > 100 µM | > 100 µM | > 100 µM | > 100 µM | > 100 µM | > 100 µM | > 100 µM | > 100 µM | > 100 µM | > 100 µM | > 100 µM | > 100 µM | > 100 µM | > 100 µM | > 100 µM | > 100 µM | > 100 µM | > 100 µM | > 100 µM | > 100 µM
CCC(C)[C@H](NC(=O)Nc1cc(C(F)(F)F)cc(C(F)(F)F)c1)C(=O)N[C@@H](Cc1cn(C)cn1)C(=O)OC (some centres undefined) | 0.513 µM | 1.08 µM | 1.6 µM | 3.4 µM | 0.801 µM | 2.08 µM | 3.65 µM |  | 0.523 µM | 0.98 µM | 0.711 µM | 1.4 µM | 0.634 µM | 1.33 µM | 0.825 µM | 1.85 µM | 1.06 µM | 2.44 µM | 1.07 µM | 1.83 µM
CC1(C)CNc2cc(NC(=O)c3cccnc3NCc3ccncc3)ccc21 | 23 µM | > 100 µM | 12.5 µM | > 79.7 µM | 26.1 µM | > 100 µM | 43.1 µM | > 100 µM | 11.7 µM | 64.9 µM | 32.2 µM | > 100 µM | 33.3 µM | > 100 µM | 26.1 µM | > 100 µM | 19.9 µM | > 100 µM | 23 µM | > 100 µM
CNC(=O)c1cc(Oc2ccc(NC(=O)Nc3ccc(Cl)c(C(F)(F)F)c3)c(F)c2)ccn1 | 2.12 µM and 2.29 µM | 6.88 µM and 9.02 µM | 2.75 µM and 1.82 µM | 7.25 µM and 5.73 µM | 1.9 µM and 2.63 µM | 4.38 µM and > 10 µM | 3.5 µM and 3.03 µM | 27.8 µM and > 10 µM | 3.83 µM and 2.91 µM | 17 µM and > 10 µM | 1.82 µM and 1.43 µM | 8.83 µM and > 10 µM | 2.39 µM and 2.31 µM | > 20.8 µM and 8.28 µM | 1.56 µM and 1.52 µM | 4.8 µM and 4.85 µM | 1.21 µM and 1.81 µM | 7.13 µM and > 10 µM | 3.46 µM and 3.96 µM | > 100 µM
COc1cc(/C=N/Nc2ncnc3c2cnn3-c2ccccc2)ccc1O | 6.54 µM | > 25 µM | > 25 µM | > 25 µM | 6.09 µM | > 25 µM | > 19.2 µM | > 25 µM | 4.33 µM | > 25 µM | 8.18 µM | > 24.1 µM | > 14.7 µM | > 25 µM | 1.41 µM | > 15.7 µM | 2.85 µM | > 25 µM | > 19.6 µM | > 25 µM
